Reference: paper PMC9924185, “A validated LC–MS/MS method for clinical pharmacokinetics and presumptive phase II metabolic pathways following oral administration of Andrographis paniculata extract” (Scientific Reports, 2023)
Like-named read-outs stand apart in the source and are kept apart here.

Experiments:
[1] = Metabolite profiling in urine by LC-QTOF/MS after oral administration of A. paniculata extract; type: in vivo; details: tentative metabolite in human urine (pooled 0–4 and 4–8 h) after single oral A. paniculata extract
Protocol: For qualitative determination of untargeted compounds, liquid chromatography-quadrupole time-of-flight mass spectrometry (LC-QTOF/MS) was performed on an Agilent 6540 QTOF/MS (Agilent Technologies, USA) equipped with an Agilent 1260 infinity liquid chromatography system. The stationary phase of the chromatographic separation was performed on a 150 mm × 4.6 mm, 5.0 µm Phenomenex Luna C18 column (Phenomenex, USA) using a mobile phase consisting of 0.1% formic acid in water pH 2.5–2.7 (A) and 100% acetonitrile (B) at a constant flow rate of 0.5 mL/min with a controlled oven temperature at 35 °C, (and 10 µL) of injection volume. The elution gradient was started with 30%B, and was increased to 90%B within 20 min, then maintained at 95%B during 25–30 min followed by a post-run for 5 min.
Mass spectrometric analysis was performed using an ESI negative and positive modes with varying collision energies (10, 20, and 40 V) over a mass range of m/z 100–1200 Da. The MS conditions were as follows: capillary voltage = 3500 V; flow rate of drying gas (N2) = 10.0 L/min, 350 °C; nebulizer pressure = 30 psi, fragmentation voltage = 250 V for negative mode and 100 V for positive mode. All acquisition data were analyzed using MassHunter Software B.07.01 and MassHunter Qualitative Analysis Software B.08.00 (Agilent Technologies, USA). To support the metabolite identification, the MS chromatograms were determined by comparing the fragmentation patterns of metabolites and library searches in Mass Hunter, and Human Metabolome Database (HMDB). For sample preparation, pooled urine samples at 0–4 and 4–8 h were prepared using the same extraction process described in the pharmacokinetic study.

[2] = Clinical pharmacokinetics in plasma after single oral administration of A. paniculata extract; type: in vivo, human; details: for Cmax / AUC(0-t) / Vd/F / Tmax / half-life: human, parent compound in plasma, single oral dose of extract (60 mg andrographolide); for Cmax: healthy subjects n = 4; for Cmax / AUC(0-t) / Vd/F: mean ± SD; for AUC(0-t) / Vd/F / Tmax / half-life: n = 4; for Tmax / half-life: median
Protocol: (§1) An aliquot of 50 µL of plasma or urine was placed in a 1.5 mL of polypropylene centrifuge micro-tube. Protein was removed from the sample by adding 200 µL of methanol (containing 50.00 ng/mL of IS). The mixture was vortexed for 10 min and was then centrifuged at 12,000 rpm, 4 °C for 10 min. The supernatant was filtered through a […] PVDF membrane (Chrom Tech) and transferred into a glass insert in a vial before LC‑MS/MS analysis.
(§2) The clinical pharmacokinetic study was designed as an open-labeled, with a single oral dosing, and conducted under a fasting condition. Four healthy subjects were recruited according to the following inclusion criteria: 18—55 years old with a body mass index (BMI) of 18–30 kg/m^2. Study participants were identified as healthy based on laboratory testing and physical examinations. The participants received 3 capsules containing A. paniculata extract (calculated as 60 mg of andrographolide/dose) before breakfast with 240 mL of drinking water. Blood samples, in EDTA tubes, were taken after oral administration at 0, 10, 20, 30, 45 min, and 1, 1.5, 2, 4, 6, 8, 10, 12, 24 h post dose. All blood samples were then centrifuged at 4000 ± 100 rpm, 4 °C for 5 min. Plasma was pipetted and stored in cryotubes at − 80 °C until further analysis. Urine samples were collected during 0–4, 4–8, 8–12, 12–24, 24–32, 32–40 and 40–48 h after dosing and were then kept at − 80 °C before sample extraction.
Pharmacokinetic parameters were determined by non-compartmental analysis using PK solutions software, version 2.0 (Summit Research Services). The maximum concentration of four targeted compounds (Cmax) and the time to reach maximum concentration (Tmax) were taken directly from the individual plasma concentration versus time profiles. The area under the curve from time zero to the last sampling time (AUC0-t) was estimated using the linear trapezoidal rule. The apparent volume of distribution (Vd/F) and the elimination half-life (t1/2) were determined using non-compartmental analysis.
(§3) Finally, the hydrolysis of glucuronide metabolites in the pharmacokinetic study was performed according to the following process: 50 µL of plasma or urine sample was incubated for 30 min with 50 µL of 1000 U/mL β-glucuronidase in phosphate buffer pH 6.8 (composed of 0.1 M sodium phosphate monobasic and 0.1 M sodium phosphate dibasic) at 37 °C. For the hydrolysis of sulfatase, 50 µL of 100 units/mL of sulfatase in an acetate buffer at pH 5.0 (composed of 0.1 M acetic acid and 0.1 M sodium acetate) was added into 50 µL of sample; the mixture was then incubated at 37 °C for 2 h. The reaction was stopped in all hydrolysis samples with 150 µL of cold methanol, and then protein precipitation was performed prior to LC–MS/MS analysis. However, due to unavailable standard of the conjugated forms (AP-glucuronide and […]). The quantitative analysis of conjugated metabolites was determined after the hydrolysis reaction by enzymatic digestion, and the free form was analyzed without hydrolysis. The conjugated standards of AP-glucuronide or AP-sulfate should be synthesized for determining the exact amount of the glucuronide or sulfate.

[3] = Cumulative urine excretion after single oral administration of A. paniculata extract; type: in vivo, human
Protocol: as §1, §2, §3

[4] = Stability in urine under different storage conditions; type: physicochemical, human
Protocol: (§4) The stability of plasma and urine samples were evaluated at three different QC concentration levels (LQC, MQC and HQC, n = 3 for each level); the conditions were freeze–thaw stability, long-term stability, short-term stability, and post preparative stability in an autosampler. The evaluation of stability under freeze–thaw condition was carried out over five cycles of − 80 °C for at least 12 h of each cycle. Long-term stability was analyzed after storing the samples at − 80 °C. Short-term stability of each analyte, for up to 8 h during processing on the bench at room temperature, was also evaluated. For evaluation of post-preparative stability, the extracted samples were stored at ambient temperature (4 °C) in an autosampler for 24 h. The analyte was considered as a stable sample when the average percentage of accuracy of the QC sample was in the range of 85–115% and the %CV was not over 15%.

[5] = plasma
Protocol: as §4

[6] = Freeze–thaw stability 5 cycles, 2.50 ng/mL (LQC)
[7] = Freeze–thaw stability 5 cycles, 500.00 ng/mL (MQC)
[8] = Freeze–thaw stability 5 cycles, 900.00 ng/mL (HQC)
[9] = Long term stability 3 months at − 80 °C, 2.50 ng/mL (LQC)
[10] = Long term stability 3 months at − 80 °C, 500.00 ng/mL (MQC)
[11] = Long term stability 3 months at − 80 °C, 900.00 ng/mL (HQC)
[12] = Post preparative stability 24 h at autosampler, 2.50 ng/mL (LQC)
[13] = Post preparative stability 24 h at autosampler, 500.00 ng/mL (MQC)
[14] = Post preparative stability 24 h at autosampler, 900.00 ng/mL (HQC)
[15] = Short term stability 8 h at room temperature, 2.50 ng/mL (LQC)
[16] = Short term stability 8 h at room temperature, 500.00 ng/mL (MQC)
[17] = Short term stability 8 h at room temperature, 900.00 ng/mL (HQC)

Compound: 14-Deoxy-11,12-didehydroandrographolide glucuronide [M2]
- Metabolic Pathway [1]: Glucuronidation

Compound: 14-Deoxyandrographolide glucuronide [M3]
- Metabolic Pathway [1]: Glucuronidation

Compound: C=C1CC[C@@H]2[C@](C)(CO[C@@H]3O[C@H](CO)[C@@H](O)[C@H](O)[C@H]3O)CCC[C@@]2(C)[C@@H]1CCC1=CCOC1=O [AP4, neoandrographolide]
- Cmax [2]: 22.4 ± 5.87 ng/mL
- AUC(0-t) [2]: 44.1 ± 7.48 ng·h/mL
- Vd/F [2]: 0.65 ± 0.13 L/kg
- Tmax [2]: 1.5 h
- half-life [2]: 13.2 min
- Amount detected in plasma ([2]; parent compound, single oral dose of extract): only very small amounts
- Conjugated metabolites in plasma ([2]; single oral dose of extract): negligible
- Conjugated metabolites in the urine [3]: negligible
- Route of excretion [3]: primarily excreted renally
- %Accuracy [4, 6]: 93.80%
- Measured concentration [4, 6]: 2.35 ± 0.08 ng/mL
- %Accuracy [4, 7]: 92.94%
- Measured concentration [4, 7]: 464.68 ± 10.80 ng/mL
- %Accuracy [4, 8]: 101.12%
- Measured concentration [4, 8]: 910.07 ± 23.86 ng/mL
- %Accuracy [4, 9]: 93.48%
- Measured concentration [4, 9]: 2.34 ± 0.16 ng/mL
- %Accuracy [4, 10]: 89.13%
- Measured concentration [4, 10]: 445.65 ± 10.92 ng/mL
- %Accuracy [4, 11]: 94.77%
- Measured concentration [4, 11]: 852.94 ± 7.53 ng/mL
- %Accuracy [4, 12]: 96.03%
- Measured concentration [4, 12]: 2.40 ± 0.15 ng/mL
- %Accuracy [4, 13]: 89.94%
- Measured concentration [4, 13]: 449.68 ± 2.36 ng/mL
- %Accuracy [4, 14]: 101.81%
- Measured concentration [4, 14]: 916.25 ± 29.10 ng/mL
- %Accuracy [4, 15]: 97.15%
- Measured concentration [4, 15]: 2.43 ± 0.07 ng/mL
- Measured concentration [4, 16]: 461.15 ± 18.24 ng/mL
- %Accuracy [4, 17]: 102.82%
- Measured concentration [4, 17]: 925.37 ± 32.74 ng/mL
- %Accuracy [5, 6]: 99.77%
- Measured concentration [5, 6]: 2.49 ± 0.14 ng/mL
- %Accuracy [5, 7]: 94.01%
- Measured concentration [5, 7]: 470.07 ± 13.89 ng/mL
- %Accuracy [5, 8]: 100.73%
- Measured concentration [5, 8]: 906.60 ± 9.37 ng/mL
- %Accuracy [5, 9]: 93.19%
- Measured concentration [5, 9]: 2.33 ± 0.12 ng/mL
- %Accuracy [5, 10]: 94.65%
- Measured concentration [5, 10]: 473.25 ± 26.27 ng/mL
- %Accuracy [5, 11]: 98.12%
- Measured concentration [5, 11]: 883.06 ± 16.19 ng/mL
- %Accuracy [5, 12]: 102.61%
- Measured concentration [5, 12]: 2.57 ± 0.12 ng/mL
- %Accuracy [5, 13]: 97.12%
- Measured concentration [5, 13]: 485.59 ± 17.11 ng/mL
- %Accuracy [5, 14]: 98.43%
- Measured concentration [5, 14]: 885.84 ± 17.63 ng/mL
- %Accuracy [5, 15]: 98.11%
- Measured concentration [5, 15]: 2.45 ± 0.19 ng/mL
- %Accuracy [5, 16]: 94.85%
- Measured concentration [5, 16]: 474.29 ± 22.98 ng/mL
- %Accuracy [5, 17]: 98.96%
- Measured concentration [5, 17]: 890.60 ± 51.25 ng/mL

Compound: C=C1CC[C@@H]2[C@](C)(CO)[C@H](O)CC[C@@]2(C)[C@@H]1CCC1=CCOC1=O [AP6, 14-deoxyandrographolide]
- Cmax [2]: 6.33 ± 1.18 ng/mL
- AUC(0-t) [2]: 10.2 ± 2.9 ng·h/mL
- Vd/F [2]: 1.93 ± 1.03 L/kg
- Tmax [2]: 1.5 h
- half-life [2]: 13.8 min
- AUC of both conjugated metabolites compared to the respective parent compounds ([2]; plasma, single oral dose of extract): greater
- Route of excretion [3]: primarily excreted renally
- %Accuracy [4, 6]: 95.48%
- Measured concentration [4, 6]: 2.39 ± 0.18 ng/mL
- %Accuracy [4, 7]: 94.03%
- Measured concentration [4, 7]: 470.16 ± 19.65 ng/mL
- %Accuracy [4, 8]: 102.77%
- Measured concentration [4, 8]: 924.91 ± 7.49 ng/mL
- %Accuracy [4, 9]: 93.89%
- Measured concentration [4, 9]: 2.35 ± 0.07 ng/mL
- %Accuracy [4, 10]: 90.88%
- Measured concentration [4, 10]: 454.38 ± 21.26 ng/mL
- %Accuracy [4, 11]: 99.27%
- Measured concentration [4, 11]: 893.39 ± 24.76 ng/mL
- %Accuracy [4, 12]: 96.20%
- Measured concentration [4, 12]: 2.41 ± 0.13 ng/mL
- %Accuracy [4, 13]: 93.94%
- Measured concentration [4, 13]: 469.68 ± 35.58 ng/mL
- %Accuracy [4, 14]: 101.31%
- Measured concentration [4, 14]: 911.80 ± 10.76 ng/mL
- %Accuracy [4, 15]: 95.56%
- Measured concentration [4, 15]: 2.39 ± 0.15 ng/mL
- %Accuracy [4, 16]: 91.90%
- Measured concentration [4, 16]: 459.52 ± 16.67 ng/mL
- %Accuracy [4, 17]: 102.42%
- Measured concentration [4, 17]: 921.74 ± 21.18 ng/mL
- %Accuracy [5, 6]: 96.87%
- Measured concentration [5, 6]: 2.42 ± 0.04 ng/mL
- %Accuracy [5, 7]: 94.79%
- Measured concentration [5, 7]: 473.93 ± 25.58 ng/mL
- %Accuracy [5, 8]: 98.93%
- Measured concentration [5, 8]: 890.41 ± 25.49 ng/mL
- %Accuracy [5, 9]: 88.89%
- Measured concentration [5, 9]: 2.22 ± 0.09 ng/mL
- %Accuracy [5, 10]: 92.43%
- Measured concentration [5, 10]: 462.16 ± 14.34 ng/mL
- %Accuracy [5, 11]: 98.92%
- Measured concentration [5, 11]: 890.25 ± 20.07 ng/mL
- %Accuracy [5, 12]: 100.85%
- Measured concentration [5, 12]: 2.52 ± 0.08 ng/mL
- %Accuracy [5, 13]: 96.39%
- Measured concentration [5, 13]: 481.96 ± 2.97 ng/mL
- %Accuracy [5, 14]: 101.27%
- Measured concentration [5, 14]: 911.38 ± 18.09 ng/mL
- %Accuracy [5, 15]: 101.65%
- Measured concentration [5, 15]: 2.54 ± 0.21 ng/mL
- %Accuracy [5, 16]: 90.47%
- Measured concentration [5, 16]: 452.37 ± 10.16 ng/mL
- %Accuracy [5, 17]: 100.71%
- Measured concentration [5, 17]: 906.41 ± 47.83 ng/mL

Compound: Andrographolide glucuronide [M1]
- Metabolic Pathway [1]: Glucuronidation

Compound: Andrographolide sulfate [M4]
- Metabolic Pathway [1]: Sulfation*
